Tests used:
P2Y purinoceptor 1 [1] = molecular target: T1, P2Y purinoceptor 1 (Homo sapiens, UniProt P47900); assay: Dissociation constant at P2Y purinoceptor 1 (P2Y1) from guinea pig taenia coli; design: species or system Cavia porcellus; settings: target entry is the homologue from another species
P2X purinoceptor 1 [2] = molecular target: T2, P2X purinoceptor 1 (Rattus norvegicus, UniProt P47824); assay: The compound was evaluated for antagonist activity against P2X purinoceptor 1 (P2X1) from rat vas deferens; format: functional
T2 sequence (P47824 whole entry): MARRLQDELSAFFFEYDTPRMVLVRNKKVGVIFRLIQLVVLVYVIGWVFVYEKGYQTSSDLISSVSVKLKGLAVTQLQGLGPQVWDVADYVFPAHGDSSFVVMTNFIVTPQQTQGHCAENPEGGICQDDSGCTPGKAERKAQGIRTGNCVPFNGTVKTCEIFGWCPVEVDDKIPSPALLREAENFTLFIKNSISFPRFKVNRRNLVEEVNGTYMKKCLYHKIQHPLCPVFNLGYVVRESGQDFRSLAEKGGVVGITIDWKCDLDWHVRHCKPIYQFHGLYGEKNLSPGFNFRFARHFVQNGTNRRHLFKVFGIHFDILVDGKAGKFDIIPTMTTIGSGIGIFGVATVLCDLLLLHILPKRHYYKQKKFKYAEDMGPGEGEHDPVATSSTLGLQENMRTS

P2X purinoceptor 4 [3] = molecular target: T3, P2X purinoceptor 4 (Homo sapiens, UniProt Q99571); assay: Antagonist activity against recombinant human P2X purinoceptor 4 (P2X4); format: functional
T3 sequence (Q99571 whole entry): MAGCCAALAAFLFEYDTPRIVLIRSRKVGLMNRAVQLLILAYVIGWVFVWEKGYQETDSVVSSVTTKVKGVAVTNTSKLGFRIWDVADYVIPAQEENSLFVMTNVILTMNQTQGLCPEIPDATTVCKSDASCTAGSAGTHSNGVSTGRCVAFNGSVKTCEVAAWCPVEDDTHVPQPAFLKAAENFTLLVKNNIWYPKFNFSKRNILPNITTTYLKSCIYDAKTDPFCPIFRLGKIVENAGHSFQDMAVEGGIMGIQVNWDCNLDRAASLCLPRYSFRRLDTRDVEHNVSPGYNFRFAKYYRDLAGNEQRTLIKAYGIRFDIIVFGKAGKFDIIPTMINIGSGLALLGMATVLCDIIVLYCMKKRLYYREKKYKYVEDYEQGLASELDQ

P2X purinoceptor 2 [4] = molecular target: T4, P2X purinoceptor 2 (Rattus norvegicus, UniProt P49653); assay: Antagonist activity against recombinant rat receptor P2X purinoceptor 2 (P2X2) at 10 uM, expressed in Xenopus oocytes; format: functional, cell-based, Oocyte
T4 sequence (P49653 whole entry): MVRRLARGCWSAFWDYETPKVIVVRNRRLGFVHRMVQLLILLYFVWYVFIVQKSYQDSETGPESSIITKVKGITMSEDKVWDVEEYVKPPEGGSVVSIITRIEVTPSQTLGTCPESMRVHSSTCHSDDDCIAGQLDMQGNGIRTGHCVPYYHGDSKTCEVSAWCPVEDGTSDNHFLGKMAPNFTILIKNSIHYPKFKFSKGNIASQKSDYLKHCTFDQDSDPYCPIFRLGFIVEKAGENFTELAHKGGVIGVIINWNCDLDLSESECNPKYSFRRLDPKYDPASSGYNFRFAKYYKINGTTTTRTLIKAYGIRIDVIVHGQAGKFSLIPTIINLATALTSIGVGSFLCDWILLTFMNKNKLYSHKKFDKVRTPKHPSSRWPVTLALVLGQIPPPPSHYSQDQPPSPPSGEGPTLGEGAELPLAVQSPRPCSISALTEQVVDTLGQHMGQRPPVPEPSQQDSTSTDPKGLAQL

P2Y purinoceptor 2 = P2Y purinoceptor 2 (Homo sapiens, UniProt P41231); assay: Evaluated for agonist activity against phospholipase C coupled recombinant human P2Y purinoceptor 2 (P2Y2); format: functional
Sequence of P2Y purinoceptor 2 (P41231 whole entry): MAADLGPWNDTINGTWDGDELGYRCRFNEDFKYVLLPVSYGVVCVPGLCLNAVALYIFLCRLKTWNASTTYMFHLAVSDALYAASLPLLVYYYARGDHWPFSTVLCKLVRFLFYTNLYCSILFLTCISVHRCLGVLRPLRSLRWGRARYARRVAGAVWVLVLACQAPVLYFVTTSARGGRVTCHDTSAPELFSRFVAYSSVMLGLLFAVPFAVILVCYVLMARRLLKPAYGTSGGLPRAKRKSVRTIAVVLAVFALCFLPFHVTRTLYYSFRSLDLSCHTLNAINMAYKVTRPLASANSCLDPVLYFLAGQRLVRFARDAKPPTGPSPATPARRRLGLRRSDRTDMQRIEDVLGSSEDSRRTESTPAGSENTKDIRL

P2Y purinoceptor 11 = molecular target: T5, P2Y purinoceptor 11 (Homo sapiens, UniProt Q96G91); assay: Agonist activity against phospholipase C coupled human P2Y purinoceptor 11 (P2Y11); format: functional
T5 sequence (Q96G91 whole entry): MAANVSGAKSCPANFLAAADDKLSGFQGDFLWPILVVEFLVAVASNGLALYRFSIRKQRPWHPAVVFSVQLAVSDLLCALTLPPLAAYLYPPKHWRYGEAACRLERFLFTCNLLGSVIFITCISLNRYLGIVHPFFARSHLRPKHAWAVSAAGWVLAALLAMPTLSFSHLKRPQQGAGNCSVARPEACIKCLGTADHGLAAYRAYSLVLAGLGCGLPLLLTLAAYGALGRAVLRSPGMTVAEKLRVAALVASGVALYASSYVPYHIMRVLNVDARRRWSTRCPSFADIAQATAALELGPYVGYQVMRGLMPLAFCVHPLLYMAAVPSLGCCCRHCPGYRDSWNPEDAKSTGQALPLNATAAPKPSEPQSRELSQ

P2Y purinoceptor 12 = P2Y purinoceptor 12 (Rattus norvegicus, UniProt Q9EPX4); assay: Antagonist activity against phospholipase C coupled rat P2Y purinoceptor 12 (P2Y12); format: functional
Sequence of P2Y purinoceptor 12 (Q9EPX4 whole entry): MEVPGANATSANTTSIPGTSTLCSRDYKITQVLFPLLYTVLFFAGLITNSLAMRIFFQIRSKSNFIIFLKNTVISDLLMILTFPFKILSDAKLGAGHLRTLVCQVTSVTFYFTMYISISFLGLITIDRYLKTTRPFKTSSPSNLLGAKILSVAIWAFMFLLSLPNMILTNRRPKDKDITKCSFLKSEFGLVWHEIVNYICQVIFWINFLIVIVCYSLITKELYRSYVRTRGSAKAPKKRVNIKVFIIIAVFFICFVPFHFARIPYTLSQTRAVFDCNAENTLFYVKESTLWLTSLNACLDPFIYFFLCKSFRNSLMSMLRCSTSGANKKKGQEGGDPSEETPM

P2Y purinoceptor 1 [5] = molecular target: P2Y purinoceptor 1 (Meleagris gallopavo, UniProt P49652); assay: Evaluated for antagonist activity agonist phospholipase C coupled P2Y purinoceptor 1 (P2Y1) of turkey erythrocytes; format: functional
Sequence of P2Y purinoceptor 1 (Meleagris gallopavo, UniProt P49652) (P49652 whole entry): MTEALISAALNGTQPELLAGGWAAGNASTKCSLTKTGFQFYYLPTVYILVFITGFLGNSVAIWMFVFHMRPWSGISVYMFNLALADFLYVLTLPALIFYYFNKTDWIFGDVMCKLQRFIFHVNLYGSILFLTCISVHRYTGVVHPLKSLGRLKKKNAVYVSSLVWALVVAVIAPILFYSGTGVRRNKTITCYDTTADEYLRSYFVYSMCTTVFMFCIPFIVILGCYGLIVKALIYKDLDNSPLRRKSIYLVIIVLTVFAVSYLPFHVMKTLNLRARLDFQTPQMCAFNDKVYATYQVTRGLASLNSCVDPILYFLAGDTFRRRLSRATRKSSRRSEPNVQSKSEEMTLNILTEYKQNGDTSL

P2Y purinoceptor 1 [6] = molecular target: T1, P2Y purinoceptor 1; assay: Evaluated for agonist activity against phospholipase C coupled P2Y purinoceptor 1 (P2Y1) of human erythrocytes; format: functional
P2X purinoceptor 4 [7] = molecular target: T6, P2X purinoceptor 4 (Rattus norvegicus, UniProt P51577); assay: Antagonist activity against recombinant rat P2X purinoceptor 4 (P2X4) at 3 uM, expressed in Xenopus oocytes; format: functional, cell-based, Oocyte
T6 sequence (P51577 whole entry): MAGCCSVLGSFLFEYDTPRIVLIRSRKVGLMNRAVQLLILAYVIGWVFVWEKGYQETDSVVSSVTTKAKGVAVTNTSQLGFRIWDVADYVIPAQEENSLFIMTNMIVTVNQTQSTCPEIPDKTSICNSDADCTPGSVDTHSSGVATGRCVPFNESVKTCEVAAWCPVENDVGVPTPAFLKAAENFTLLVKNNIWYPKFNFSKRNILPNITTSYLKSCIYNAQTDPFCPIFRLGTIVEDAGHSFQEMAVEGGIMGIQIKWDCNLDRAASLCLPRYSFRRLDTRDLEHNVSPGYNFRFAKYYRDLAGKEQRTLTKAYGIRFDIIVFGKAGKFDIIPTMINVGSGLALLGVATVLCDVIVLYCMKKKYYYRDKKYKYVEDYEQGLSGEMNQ

P2X purinoceptor 5 = molecular target: T7, P2X purinoceptor 5 (Rattus norvegicus, UniProt P51578); assay: Antagonist activity against recombinant rat P2X purinoceptor 5 (P2X5); format: functional
T7 sequence (P51578 whole entry): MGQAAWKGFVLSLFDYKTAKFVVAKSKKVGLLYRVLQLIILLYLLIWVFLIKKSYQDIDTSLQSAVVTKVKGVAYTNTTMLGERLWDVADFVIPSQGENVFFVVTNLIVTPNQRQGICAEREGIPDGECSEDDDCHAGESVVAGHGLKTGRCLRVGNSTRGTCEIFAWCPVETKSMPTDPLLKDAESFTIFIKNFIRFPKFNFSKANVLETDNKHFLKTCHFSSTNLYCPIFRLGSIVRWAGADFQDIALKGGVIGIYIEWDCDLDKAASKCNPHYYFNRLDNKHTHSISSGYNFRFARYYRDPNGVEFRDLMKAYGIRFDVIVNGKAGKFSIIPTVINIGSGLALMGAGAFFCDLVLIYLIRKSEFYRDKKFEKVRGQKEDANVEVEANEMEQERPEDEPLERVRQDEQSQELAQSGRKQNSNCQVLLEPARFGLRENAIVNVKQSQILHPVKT

P2X purinoceptor 6 = P2X purinoceptor 6 (Rattus norvegicus, UniProt P51579); assay: Antagonist activity against recombinant rat P2X purinoceptor 6 (P2X6 ); format: functional
Sequence of P2X purinoceptor 6 (P51579 whole entry): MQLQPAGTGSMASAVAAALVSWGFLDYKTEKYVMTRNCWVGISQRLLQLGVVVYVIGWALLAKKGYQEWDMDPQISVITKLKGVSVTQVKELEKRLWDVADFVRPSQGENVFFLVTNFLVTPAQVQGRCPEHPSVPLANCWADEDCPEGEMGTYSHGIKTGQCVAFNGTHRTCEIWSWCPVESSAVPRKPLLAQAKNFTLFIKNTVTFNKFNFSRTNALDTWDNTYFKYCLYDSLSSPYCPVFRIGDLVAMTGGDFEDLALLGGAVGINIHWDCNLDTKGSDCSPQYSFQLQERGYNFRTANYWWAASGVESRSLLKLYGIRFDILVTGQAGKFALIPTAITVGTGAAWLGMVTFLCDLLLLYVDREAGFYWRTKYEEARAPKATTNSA

P2X purinoceptor 2 [8] = molecular target: T4, P2X purinoceptor 2; assay: The compound was evaluated for antagonist activity against recombinant rat receptor P2X purinoceptor 2 (P2X2) at 30 uM, expressed in Xenopus oocytes; format: functional, cell-based, Oocyte
P2X purinoceptor 7 = P2X purinoceptor 7 (Rattus norvegicus, UniProt Q64663); assay: The compound was evaluated for antagonist activity against recombinant rat P2X purinoceptor 7 (P2X7); format: functional
Sequence of P2X purinoceptor 7 (Q64663 whole entry): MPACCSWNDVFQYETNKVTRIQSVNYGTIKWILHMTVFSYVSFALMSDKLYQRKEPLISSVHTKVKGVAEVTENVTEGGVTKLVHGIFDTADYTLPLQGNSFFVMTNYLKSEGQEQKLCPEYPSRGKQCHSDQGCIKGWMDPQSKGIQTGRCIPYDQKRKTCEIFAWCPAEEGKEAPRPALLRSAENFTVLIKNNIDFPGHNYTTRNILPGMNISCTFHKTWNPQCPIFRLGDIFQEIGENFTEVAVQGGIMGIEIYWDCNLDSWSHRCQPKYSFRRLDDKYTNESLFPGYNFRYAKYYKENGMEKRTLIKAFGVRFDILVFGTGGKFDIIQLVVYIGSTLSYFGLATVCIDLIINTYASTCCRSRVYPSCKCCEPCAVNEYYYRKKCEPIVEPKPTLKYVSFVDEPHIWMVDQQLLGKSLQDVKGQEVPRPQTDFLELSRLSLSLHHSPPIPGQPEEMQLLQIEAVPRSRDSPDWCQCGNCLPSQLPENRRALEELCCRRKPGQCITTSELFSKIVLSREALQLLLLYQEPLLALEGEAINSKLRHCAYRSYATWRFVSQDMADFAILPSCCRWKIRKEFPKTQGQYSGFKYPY

P2Y purinoceptor 4 = P2Y purinoceptor 4 (Homo sapiens, UniProt P51582); assay: The compound was evaluated for antagonist activity against phospholipase C coupled recombinant human P2Y purinoceptor 4 (P2Y4); format: functional
Sequence of P2Y purinoceptor 4 (P51582 whole entry): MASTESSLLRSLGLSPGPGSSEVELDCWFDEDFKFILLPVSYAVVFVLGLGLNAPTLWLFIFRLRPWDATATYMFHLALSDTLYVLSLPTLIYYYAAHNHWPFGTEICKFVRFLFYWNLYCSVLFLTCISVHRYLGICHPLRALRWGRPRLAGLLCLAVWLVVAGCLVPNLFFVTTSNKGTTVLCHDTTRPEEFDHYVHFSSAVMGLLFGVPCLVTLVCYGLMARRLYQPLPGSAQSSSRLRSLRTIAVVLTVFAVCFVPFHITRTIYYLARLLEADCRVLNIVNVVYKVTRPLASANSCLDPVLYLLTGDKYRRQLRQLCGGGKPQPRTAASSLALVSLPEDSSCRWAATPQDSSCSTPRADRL

P2Y purinoceptor 6 = P2Y purinoceptor 6 (Homo sapiens, UniProt Q15077); assay: The compound was evaluated for agonist activity against phospholipase C coupled recombinant human P2Y purinoceptor 6 (P2Y6); format: functional; settings: concentration not given here
Sequence of P2Y purinoceptor 6 (Q15077 whole entry): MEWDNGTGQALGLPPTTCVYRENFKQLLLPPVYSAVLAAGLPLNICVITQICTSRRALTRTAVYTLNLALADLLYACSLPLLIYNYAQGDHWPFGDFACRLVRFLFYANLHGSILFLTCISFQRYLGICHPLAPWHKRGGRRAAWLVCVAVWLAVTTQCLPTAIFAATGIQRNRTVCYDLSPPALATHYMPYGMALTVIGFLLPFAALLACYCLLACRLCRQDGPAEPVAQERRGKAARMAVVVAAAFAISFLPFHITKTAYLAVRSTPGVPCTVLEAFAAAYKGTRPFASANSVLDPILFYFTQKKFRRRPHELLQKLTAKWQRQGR

P2X purinoceptor 1 [9] = molecular target: T2, P2X purinoceptor 1; assay: The compound was evaluated for antagonist activity against recombinant rat P2X purinoceptor 1 (P2X1) at 1 uM, expressed in Xenopus oocytes; format: functional, cell-based, Oocyte
[10] = molecular target: P2Y purinoceptor 1 (Rattus norvegicus) (UniProt P49651); assay: Evaluated for agonist activity against phospholipase C coupled P2Y purinoceptor 1 (P2Y1) of rat erythrocytes
Sequence of P2Y purinoceptor 1 (Rattus norvegicus) (P49651 whole entry, looked up): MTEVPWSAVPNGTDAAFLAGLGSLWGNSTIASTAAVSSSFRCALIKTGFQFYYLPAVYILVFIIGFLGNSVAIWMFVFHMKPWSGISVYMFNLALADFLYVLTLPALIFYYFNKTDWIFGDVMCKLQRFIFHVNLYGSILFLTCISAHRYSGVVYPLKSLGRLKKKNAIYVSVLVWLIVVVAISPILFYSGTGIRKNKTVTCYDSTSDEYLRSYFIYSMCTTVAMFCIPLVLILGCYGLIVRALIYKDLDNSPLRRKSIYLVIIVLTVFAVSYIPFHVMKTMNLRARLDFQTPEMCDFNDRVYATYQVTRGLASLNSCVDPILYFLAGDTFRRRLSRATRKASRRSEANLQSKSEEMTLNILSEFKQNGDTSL

P2X purinoceptor 1 [11] = molecular target: T8, P2X purinoceptor 1 (Rattus norvegicus, UniProt P47824); assay: Dissociation constant of the compound at P2X purinoceptor 1 (P2X1) from rat vas deferens was reported
P2X purinoceptor 1 [12] = molecular target: T8, P2X purinoceptor 1; assay: The compound was evaluated for antagonist activity against P2X purinoceptor 1 (P2X1) receptor from rat vas deferens; format: functional
[13] = molecular target: P2Y purinoceptor 1 (Cavia porcellus); assay: The compound was evaluated for antagonistic activity at P2Y purinoceptor 1 (P2Y1) from guinea pig taenia coli

T1 sequence (P47900 whole entry): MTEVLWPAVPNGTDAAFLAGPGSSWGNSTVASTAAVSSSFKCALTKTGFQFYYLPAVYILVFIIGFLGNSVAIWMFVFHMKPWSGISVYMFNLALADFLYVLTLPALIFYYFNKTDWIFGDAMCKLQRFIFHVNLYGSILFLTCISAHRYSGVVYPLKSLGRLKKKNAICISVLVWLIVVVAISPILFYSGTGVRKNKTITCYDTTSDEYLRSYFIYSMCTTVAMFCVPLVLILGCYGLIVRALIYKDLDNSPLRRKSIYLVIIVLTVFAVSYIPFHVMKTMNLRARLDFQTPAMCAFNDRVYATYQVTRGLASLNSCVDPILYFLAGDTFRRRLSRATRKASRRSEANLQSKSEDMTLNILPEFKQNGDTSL

SMILES: C=CS(=O)(=O)c1cccc(Nc2cc(S(=O)(=O)O)c(N)c3c2C(=O)c2ccccc2C3=O)c1 [UNIBLUE A]
- Kd (P2Y purinoceptor 1 [1]): > 100 µM
- IC50 (P2X purinoceptor 1 [2]): 7.5 µM

SMILES: Nc1c(S(=O)(=O)O)cc(Nc2ccc(Nc3nc(Cl)nc(Nc4cccc(S(=O)(=O)O)c4)n3)c(S(=O)(=O)O)c2)c2c1C(=O)c1ccccc1C2=O [RB 2]
- EC50 (P2X purinoceptor 4 [3]): 128 µM
- EC50 (P2X purinoceptor 2 [4]): 0.36 µM
- EC50 (P2Y purinoceptor 2): > 100 µM
- EC50 (P2Y purinoceptor 11): > 100 µM
- EC50 (P2Y purinoceptor 12): 0.025 µM
- EC50 (P2Y purinoceptor 1 [5]): > 10 µM

SMILES: Cc1nc(/N=N/c2ccc(S(=O)(=O)O)cc2S(=O)(=O)O)c(COP(=O)(O)O)c(C=O)c1O
- EC50 (P2Y purinoceptor 1 [6]): 1 µM
- EC50 (P2X purinoceptor 4 [7]): > 10 µM
- EC50 (P2X purinoceptor 5): 2.6 µM
- EC50 (P2X purinoceptor 6): > 100 µM
- EC50 (P2X purinoceptor 2 [8]): 12 µM
- EC50 (P2Y purinoceptor 2): > 10 µM
- EC50 (P2X purinoceptor 7): 62 µM
- EC50 (P2Y purinoceptor 12): > 100 µM
- EC50 (P2Y purinoceptor 4): > 10 µM
- inhibition (P2Y purinoceptor 6): 69%
- EC50 (P2X purinoceptor 1 [9]): 0.099 µM
- EC50 [10]: 18.2 µM

SMILES: Cc1nc(/N=N/c2ccc(C(=O)O)c(Cl)c2)c(COP(=O)(O)O)c(C=O)c1O
- Kd (P2X purinoceptor 1 [11]): 1.6 µM
- IC50 (P2X purinoceptor 1 [12]): 9.6 µM
- Kd [13]: 2.9 µM

— ChEMBL document CHEMBL1135773, “Purine and pyrimidine (P2) receptors as drug targets” (J Med Chem, 2002)
